Assay results from US20150239905A1, “IMIDAZOPYRIDINE COMPOUNDS” (Proximagen Limited, priority 2008, published 2015).
pIC50: −log10 of the molar value.

These molecules were tested against T1, purified recombinantly expressed human SSAO (Homo sapiens, UniProt Q16853) (assay: SSAO enzyme inhibition assay (benzylamine substrate; hydrogen peroxide/HRP-coupled or 14C-benzaldehyde detection)). Details: human recombinant SSAO, benzylamine as substrate, rt.
T1 construct: made in house
T1 sequence (Q16853 29-763 limits assumed): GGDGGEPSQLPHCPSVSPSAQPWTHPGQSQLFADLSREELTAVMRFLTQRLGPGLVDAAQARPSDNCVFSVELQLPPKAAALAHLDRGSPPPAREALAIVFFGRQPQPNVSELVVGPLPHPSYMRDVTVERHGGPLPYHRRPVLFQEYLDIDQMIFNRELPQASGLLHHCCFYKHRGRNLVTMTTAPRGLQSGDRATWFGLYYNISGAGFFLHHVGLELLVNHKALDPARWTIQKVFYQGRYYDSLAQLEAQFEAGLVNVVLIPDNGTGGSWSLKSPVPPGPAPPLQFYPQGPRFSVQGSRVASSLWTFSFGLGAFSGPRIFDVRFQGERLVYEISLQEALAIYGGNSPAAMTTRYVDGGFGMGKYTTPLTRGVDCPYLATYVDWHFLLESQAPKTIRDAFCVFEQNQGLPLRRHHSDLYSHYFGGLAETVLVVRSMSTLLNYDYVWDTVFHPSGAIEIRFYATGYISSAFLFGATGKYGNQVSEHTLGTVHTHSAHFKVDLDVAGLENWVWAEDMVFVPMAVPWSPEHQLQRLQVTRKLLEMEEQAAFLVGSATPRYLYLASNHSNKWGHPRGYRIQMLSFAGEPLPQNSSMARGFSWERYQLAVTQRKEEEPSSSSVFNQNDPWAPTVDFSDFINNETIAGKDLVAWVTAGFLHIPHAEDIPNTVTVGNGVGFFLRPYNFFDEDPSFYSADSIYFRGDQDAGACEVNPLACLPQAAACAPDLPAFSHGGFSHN
Type: biochemical
Procedure: All primary assays were performed in rt with purified recombinantly expressed human SSAO. Enzyme was prepared essentially as described in Öhman et al. (Protein Expression and Purification 46 (2006) 321-331). In addition, secondary- and selectivity assays were performed using SSAO prepared from various tissues or purified rat recombinant SSAO. The enzyme activity was assayed with benzylamine as substrate by measuring either benzaldehyde production, using ^14C-labeled substrate, or by utilizing the production of hydrogen peroxide in a horseradish peroxidise (HRP) coupled reaction. Briefly, test compounds were dissolved in dimethyl sulfoxide (DMSO) to a concentration of 10 mM. Dose-response measurements were assayed by either creating 1:10 serial dilutions in DMSO to produce a 7 point curve or by making 1:3 serial dilutions in DMSO to produce 11 point curves. The top concentrations were adjusted depending on the potency of the compounds and subsequent dilution in reaction buffer yielded a final DMSO concentration≦2%.
In a horseradish peroxidise (HRP) coupled reaction, hydrogen peroxide oxidation of 10-acetyl-3,7-dihydroxyphenoxazine produced resorufin, which is a highly fluorescent compound (Zhout and Panchuk-Voloshina. Analytical Biochemistry 253 (1997) 169-174; Amplex® Red Hydrogen Peroxide/peroxidise Assay kit, Invitrogen A22188). Enzyme and compounds in 50 mM sodium phosphate, pH 7.4 were set to pre-incubate in flat-bottomed microtiter plates for approximately 15 minutes before initiating the reaction by addition of a mixture of HRP, benzylamine and Amplex reagent. Benzylamine concentration was fixed at a concentration corresponding to the Michaelis constant, determined using standard procedures. Fluorescence intensity was then measured at several time points during 1-2 hours, exciting at 544 nm and reading the emission at 590 nm. For the human SSAO assay final concentrations of the reagents in the assay wells were: SSAO enzyme […], benzylamine 100 μM, Amplex reagent 20 μM, HRP 0.1 U/mL and varying concentrations of test compound. The inhibition was measured as % decrease of the signal compared to a control without inhibitor (only diluted DMSO). The background signal from a sample containing no SSAO enzyme was subtracted from all data points. Data was fitted to a four parameter logistic model and IC50 values were calculated using the GraphPad Prism 4 or XLfit 4 programs.
SSAO activity was assayed using 14C-labeled benzylamine and analysed by measuring radioactive benzaldehyde. […] Phase separation occurred instantly and activity was read in a Topcount scintillation counter (Perkin-Elmer). […] Data was analysed as above.

Compound	pIC50
OCc1c(-c2ccc(Br)cc2)nc2ccc(C(F)(F)F)cn12 [Example 23, [2-(4-Bromophenyl)-6-(trifluoromethyl)imidazo[1,2-a]pyridin-3-yl]methanol]	7.06
O=C(c1ccc2nc(-c3ccc(Cl)cc3)c(CO)n2c1)N1CCC(CO)CC1 [Example 62, (1-{[2-(4-Chlorophenyl)-3-(hydroxymethyl)imidazo[1,2-a]pyridin-6-yl]carbonyl}piperidin-4-yl)methanol]	6.81
COc1cccc(-c2nc3cnc(Br)cn3c2CO)c1 [Example 81, [6-Bromo-2-(3-methoxyphenyl)imidazo[1,2-a]pyrazin-3-yl]methanol]	6.61
CC(O)c1cn2c(CO)c(-c3ccc(Cl)cc3)nc2s1 (stereo not shown) [Example 106, 1-[6-(4-Chlorophenyl)-5-(hydroxymethyl)imidazo[2,1-b][1,3]thiazol-2-yl]ethanol]	7.05
